# How the values were obtained:
# Format in all cases: in vivo
# MC1 cDNA = test: DD-PCR analysis of brain mRNA of MDMA-treated mice; design: key to Intensity of MC1 cDNA band, MDMA, F. Cortex / Intensity of MC1 cDNA band, MDMA, MidBrain: − (lowest); ++ (highest); details: 2 hr
# Description: (§1) Young adult male C57BI/6J mice (2-3 months old) were injected intraperitoneally with 0.25 ml saline (control) or saline containing MDMA (10 mg/kg). Unless otherwise indicated, mice were sacrificed 2 hr after drug treatment and frontal cortex and/or midbrain were rapidly dissected in ice-cold saline. The dissected brain tissue was frozen on dry ice, 0.5 ml Tri Reagent was added, and samples were stored at −70° C. Serotonin transporter knockout mice (−/−) (Bengel et al., 1998) were used when indicated.
# Frontal cortex or midbrain samples frozen with Tri Reagent were crushed, 1 ml Tri Reagent was added and total RNA was isolated according to the manufacture's protocol. RNA samples were treated with RNase-free DNase I for 30 minutes at 37° C. and RNA quality and yield was verified on 1.2% formaldehyde agarose gel. First-strand cDNA was prepared from 0.5 μg total RNA as template and 0.8 μM (dT)12GC, (dT)12CC or oligo(dT)18 as a primer, using Superscript amplification kit. DD-PCR (differential display-PCR) was carried out in 20 μl total volume, and included 0.8 μM of one of the 3′ primers (dT)12GC, (dT)12CC or (dT)12, the arbitrary 5′ primer 5′-GGACAGCTTC-3′, 2.5 μM dNTP, 2.5 mM MgCl2, 2 μCi α-^33P-[dATP] (3000 Ci/mM), cDNA prepared from 50 ng total RNA, and 2.5 units of Taq DNA polymerase. The DD-PCR reaction was started with 3 minutes incubation at 94° C., followed with 40 cycles of 30 sec at 94° C., 2 minutes at 40° C. and 30 sec at 72° C., and finally 5 minutes at 72° C. Then, 10 μl of the reaction was mixed with 10 μl of 95% formamide containing 0.05% bromophenol blue and 0.05% xylene cyanol, and incubated for 5 minutes at 75° C. An aliquot (6 μl) was analysed on a denatured DNA sequencing gel. The gel was dried and exposed to Phosphoimage Analyzer (Fujix) or to X-ray film. The DNA bands expressed differentially upon MDMA-treatment were identified, cut from the gel, socked in H2O, boiled for 15 minutes and centrifuged (10000 g). […]
# MG2 cDNA = test: DD-PCR analysis of brain mRNA of MDMA-treated mice; design: key: − (lowest); ++ (highest); details: MDMA one i.p. injection, 10 mg/kg, 2 hr; frontal cortex
# Description: as §1
# (§2) Frontal cortex or midbrain samples frozen with Tri Reagent were crushed, 1 ml Tri Reagent was added and total RNA was isolated according to the manufacture's protocol. RNA samples were treated with RNase-free DNase I for 30 minutes at 37° C. and RNA quality and yield was verified on 1.2% formaldehyde agarose gel. First-strand cDNA was prepared from 0.5 μg total RNA as template and 0.8 μM (dT)12GC, (dT)12CC or oligo(dT)18 as a primer, using Superscript amplification kit. DD-PCR (differential display-PCR) was carried out in 20 μl total volume, and included 0.8 μM of one of the 3′ primers (dT)12GC, (dT)12CC or (dT)12, the arbitrary 5′ primer 5′-GGACAGCTTC-3′, 2.5 μM dNTP, 2.5 mM MgCl2, 2 μCi α-^33P-[dATP] (3000 Ci/mM), cDNA prepared from 50 ng total RNA, and 2.5 units of Taq DNA polymerase. The DD-PCR reaction was started with 3 minutes incubation at 94° C., followed with 40 cycles of 30 sec at 94° C., 2 minutes at 40° C. and 30 sec at 72° C., and finally 5 minutes at 72° C. Then, 10 μl of the reaction was mixed with 10 μl of 95% formamide containing 0.05% bromophenol blue and 0.05% xylene cyanol, and incubated for 5 minutes at 75° C. An aliquot (6 μl) was analysed on a denatured DNA sequencing gel. The gel was dried and exposed to Phosphoimage Analyzer (Fujix) or to X-ray film. The DNA bands expressed differentially upon MDMA-treatment were identified, cut from the gel, socked in H2O, boiled for 15 minutes and centrifuged (10000 g). Ten μl of the supernatant was used as template to re-amplify the band of interest, with the same primers and PCR conditions described for DD-PCR except that 25 μM dNTP and no isotopes were used. Ten μl of the PCR reaction was run on a 2% agarose gel. The band of the predicted size was excised, purified with DNA extraction kit, and cloned into pGEM-T Easy Vector. Plasmid DNA from successful clones was purified with Plasmid Mini Kit and subjected for sequencing (Biological Services, Weizmann Institute of Science). Sequence data were compared with GeneBank (NCBI).
# (§3) Total RNA from frontal cortex (“FC”) and midbrain (“MB”) of saline—(denoted as “−”) and MDMA-treated (denoted as “+”) mice (one i.p. injection, 10 mg/kg, 2 hr) were used for DD-PCR analysis. The random primers used were dT12CC for MC1, dT12GG for MG3, MG4, MG5 and MG6, and dT18 for G1. Different but characteristic cDNA products were obtained with each one of the three primers. […] Some of the altered expression levels are common for both brain regions while others are specific either to the frontal cortex or the midbrain.
# MC2 cDNA = test: DD-PCR analysis of brain mRNA of MDMA-treated mice; design: key: − (lowest); ++ (highest); details: MDMA one i.p. injection, 10 mg/kg, 2 hr
# Description: as §1, §2, §3
# MG3 cDNA = test: DD-PCR analysis of brain mRNA of MDMA-treated mice; design: key: − (lowest); ++ (highest); details: MDMA one i.p. injection, 10 mg/kg, 2 hr
# Description: as §1, §2, §3
# MG5 cDNA = test: DD-PCR analysis of brain mRNA of MDMA-treated mice; design: key: − (lowest); ++ (highest); details: MDMA one i.p. injection, 10 mg/kg, 2 hr
# Description: as §1, §2, §3
# mGAT1 [1] = test: Semi-quantitative RT-PCR of brain mRNA of MDMA-treated mice; details: for Increase of mGAT1 expression, estimated by scanning: MDMA 10 mg/kg i.p., 2 hr, GAPDH as standard
# GAPDH = test: Real-time PCR analysis of midbrain RNA of MDMA-treated mice
# Description: as §1
# (§4) Real-time PCR analysis was performed with the LightCycler System (Roche Molecular Biochemicals) and LightCycler-FastStart DNA Master SYBR Green I, according to the manufacturer instructions. Reactions (in 20 μl) included template cDNA prepared from 0.1-0.5 μg total RNA, 3 mM MgCl2 and 0.25-0.5 μM primers. Buffer, dNTP mixture (with dUTP instead of dTTP), Taq DNA polymerase, and SYBR Green I dye were included in the ‘Hot start’ reaction as recommended. Typical protocol was as follows. Ten minutes at 95° C. followed by 40 cycles of amplification, starting with 15 sec at 95° C., 10 sec at 60° C. and 10 sec at 72° C. The extension period varied with each specific primer, depending on the product length (about 1 sec/25 bp).
# (§5) For quantification analysis, 3-5 standards of PCR products with known concentration were amplified under the same cycling conditions, and GAPDH was amplified as an internal control to correct for variations in the amount of cDNA. Real-time PCR products of each assay were also subjected to agarose gel electrophoresis, to further confirm amplification specificity. Quantitation was assessed with LightCycler Data Analysis (LCDA) software by the Fit Points method. Melting curve of the cDNA product was determined by incubation at 95° C. for 0 sec, 15 sec at 65° C. and 0 sec at 95° C., followed by a cooling of 30 sec at 40° C.
# (§6) RNA extracted from the midbrain of saline- or MDMA-treated mice was analyzed with the LightCycler System, using specific primers for mGAT1 and mGAT4, along with GAPDH as a control (see Materials and Methods). […] (FIG. 4F).
# mGAT1 [2] = test: as above
# Description: as §1, §4, §5, §6
# mGAT4 [3] = test: as above
# Description: as §1, §4, §5, §6
# MC2, MG2 and MG4 cDNAs = test: Semi-quantitative RT-PCR of brain mRNA of MDMA-treated mice; details: FIG. 2B, MDMA 10 mg/kg i.p., 2 hr
# mGAT2 = test: as above
# mGAT1 protein = test: Western immunoblotting with anti-GAT1 antibodies, MDMA-treated mice; details: for GAT1 protein, fold of control: SERT knockout (−/−) mice; for Increase of GAT1 immunoreactivity: wild type mice
# Description: as §1
# Protein was isolated with Tri Reagent according to the protocol provided by the manufacturer. After precipitation with isopropanol, the protein pellet was washed three times with 0.3M guanidine hydrochloride and 95% ethanol, followed by washing with ethanol, dried, and dissolved in 10 M urea containing 50 mM dithiothreitol (DTT). Samples were kept at room temperature for 1 hr before boiling for 3 minutes, sonicated on ice for 2 minutes, and stored at −20° C. Protein concentration was determined with the micro BCA protein assay reagent kit. Samples of 30 μg protein run on SDS-PAGE (5% stacking gel and 8% or 10% separating gel), with Kaleidoscope pre-stained standard proteins as molecular weight markers. The proteins were transferred to nitrocellulose membranes preincubated for 2 hr in Tris-buffered saline (TBS) with 10% non-fat dry milk and 0.1% Tween 20, and incubated overnight at 4° C. or 2 hr at room temperature with anti-GAT1 antibodies (1:500 in TBS containing 5% non-fat dry milk). Membranes were then washed three times with TBS containing 0.1% Tween 20, incubated for 2 hr at room temperature with the second antibody, horseradish peroxidase coupled to F(ab)2 anti-rabbit IgG, washed four times with the same buffer, and subjected to ECL Western immublotting detection reagents.
# It was essential to determine whether the MDMA-induced increase in mGAT1 mRNA was correlated with a similar change in protein level. […] These anti-GAT1 antibodies were also useful to verify MDMA effect on the expression of mGAT1 in the SERT knockout mice (−/−) that behaviorally are nonresponsive to MDMA (Bengel et al., 1998).
# mGAT4 [4] = test: Semi-quantitative RT-PCR of brain mRNA of MDMA-treated mice; details: for Increase of mGAT4 mRNA level: MDMA 10 mg/kg i.p., 2 hr, GAPDH for semi-quantitation; for Return of mGAT4 increase to control levels: within 2 days
# G1 cDNA (mGAT1) = test: DD-PCR analysis of brain mRNA of MDMA-treated mice; design: key to Intensity of G1 cDNA band, MDMA, F. Cortex: − (lowest); ++ (highest); details: 2 hr
# Description: as §1
# Frontal cortex or midbrain samples frozen with Tri Reagent were crushed, 1 ml Tri Reagent was added and total RNA was isolated according to the manufacture's protocol. RNA samples were treated with RNase-free DNase I for 30 minutes at 37° C. and RNA quality and yield was verified on 1.2% formaldehyde agarose gel. First-strand cDNA was prepared from 0.5 μg total RNA as template and 0.8 μM (dT)12GC, (dT)12CC or oligo(dT)18 as a primer, using Superscript amplification kit. DD-PCR (differential display-PCR) was carried out in 20 μl total volume, and included 0.8 μM of one of the 3′ primers (dT)12GC, (dT)12CC or (dT)12, the arbitrary 5′ primer 5′-GGACAGCTTC-3′, 2.5 μM dNTP, 2.5 mM MgCl2, 2 μCi α-^33P-[dATP] (3000 Ci/mM), cDNA prepared from 50 ng total RNA, and 2.5 units of Taq DNA polymerase. […] An aliquot (6 μl) was analysed on a denatured DNA sequencing gel. […]
# [5] = MDMA one i.p. injection, 10 mg/kg, frontal cortex
# [6] = both frontal cortex and midbrain, MDMA 10 mg/kg i.p.
smiles,measurement,setting,value
"CNC(C)Cc1ccc2c(c1)OCO2 (stereo not shown) [MDMA, 3,4-Methylenedioxymethamphetamine]","Intensity of MC1 cDNA band, MDMA, F. Cortex",MC1 cDNA; [5],−
same,"Intensity of MC1 cDNA band, MDMA, MidBrain","MC1 cDNA; MDMA one i.p. injection, 10 mg/kg, midbrain",−
same,Change of cDNA band MC1 in MDMA-treated mice (FIG. 1B),MC1 cDNA; [6],profound decrease
same,"Intensity of MG2 cDNA band, MDMA, F. Cortex",MG2 cDNA,++
same,"Intensity of MC2 cDNA band, MDMA, MidBrain",MC2 cDNA,++
same,"Intensity of MG3 cDNA band, MDMA, F. Cortex",MG3 cDNA; frontal cortex,−
same,"Intensity of MG3 cDNA band, MDMA, MidBrain",MG3 cDNA; midbrain,−
same,"Intensity of MG5 cDNA band, MDMA, F. Cortex",MG5 cDNA; frontal cortex,−
same,"Intensity of MG5 cDNA band, MDMA, MidBrain",MG5 cDNA; midbrain,−
same,"Increase of mGAT1 expression, estimated by scanning",mGAT1 [1]; frontal cortex,1.58 fold
same,"Increase of mGAT1 expression, estimated by scanning",mGAT1 [1]; midbrain,1.74 fold
same,Time for which MDMA effect on mGAT1 expression sustained,mGAT1 [1]; time course 2 hours-7 days after treatment,7 days
same,Increase of GAPDH level,GAPDH,19%
same,GAPDH level after MDMA treatment (real-time PCR amount),GAPDH; control 514×10^−5 pmole,0.00612 pmol
same,Net increase in mGAT1 levels (corrected for GAPDH),mGAT1 [2],5.2 fold
same,mGAT1 expression after MDMA treatment (real-time PCR amount),mGAT1 [2]; control 3.43×10^−5 pmole,0.000211 pmol
same,Increase in mGAT4/GAPDH ratio compared with controls,mGAT4 [3],1.52 fold
same,"MDMA-induced changes of MC2, MG2 and MG4 expression","MC2, MG2 and MG4 cDNAs",1.5-2.2 fold
same,Effect on mGAT2 expression,"mGAT2; MDMA 10 mg/kg i.p., 2 hr, frontal cortex and midbrain",insignificant effect
same,mGAT2 expression in time course,mGAT2; from 2 hours to 7 days after treatment,did not change
same,"GAT1 protein, fold of control",mGAT1 protein; frontal cortex,1.3 fold
same,"GAT1 protein, fold of control",mGAT1 protein; midbrain,1.0 fold
same,Induction of GAT1 protein upon MDMA treatment,mGAT1 protein; SERT −/− mice,no significant induction
same,Increase of GAT1 immunoreactivity,mGAT1 protein; frontal cortex,2.1 fold
same,Increase of GAT1 immunoreactivity,mGAT1 protein; midbrain,2.4 fold
same,Increase of mGAT4 mRNA level,mGAT4 [4]; frontal cortex,4.6 fold
same,Return of mGAT4 increase to control levels,mGAT4 [4]; frontal cortex,partially
same,Increase of mGAT4 mRNA level,mGAT4 [4]; midbrain,1.7 fold
same,Return of mGAT4 increase to control levels,mGAT4 [4]; midbrain,completely
same,"Intensity of G1 cDNA band, MDMA, F. Cortex",G1 cDNA (mGAT1); [5],++
same,Change of intensity of cDNA G1 in MDMA-treated mice (FIG. 1C),G1 cDNA (mGAT1); [6],increased

# Reference: patent US20050267050A1, “Compositions and methods for treating mdma-induced toxicity” (YEDA RESEARCH AND DEVELOPMENT CO. LTD., priority 2002, published 2005)
